Reference: patent US20040116523A1, “Use of c4-c10 acids for preventing gram-negative bacterial infections” (priority 2000, published 2004)

How the values were obtained:
[1] = test system: Gram-positive or Gram-negative bacteria; conditions: in vitro, concentration not given; cited from earlier work
S. typhi = conditions: 0.25 g/l; cited from earlier work
Shigella sonnei = conditions: 0.25 g/l; cited from earlier work
Vibrio cholerae = conditions: 0.25 g/l; cited from earlier work
S. typhimurium C52 = assay: Splenic colonization of C57Bl/6 mice infected orally with S. typhimurium C52; type: in vivo
Experimental: The 5-6-week-old female C57Bl/6 mice used in the context of this experiment originated from the IFFA-CREDO breeding centre (LArbresle, France).
They were infected orally in the following way. The Salmonella strains were cultured in TCS broth for 18 hours at 37° C. with shaking (200 rpm). This culture was then adjusted to […] (in the stationary growth phase, 1 OD600 =1.5 ×10^9 bacteria/ml), and then the number of viable bacteria was controlled by counting on TCS agar.
On the day of infection (DO), the drinking-water bottles of the mice were replaced with bottles containing 100 ml of drinking water to which the required number of bacteria had been added.
After infection for 24 hours ([…]), the bottles containing the contaminated drinking water were replaced with bottles containing uncontaminated drinking water.
Seven days after infection (D+7), the spleens of the mice infected in this way were removed and homogenized separately in 1 ml of physiological saline containing 0.7% of NaCl.
The number of viable bacteria per spleen was determined by plating out dilutions of the homogenate, onto TCS agar.
The effect of the composition of the drinking water on the splenic colonization by Salmonella was estimated using the Student's t test.
The S. typhimurium strain C52 was used to infect C57Bl/6 mice orally.
On this figure, the number of viable bacteria is given as the mean (log10) of the values ± the standard deviation. […]

[2] = test system: sipB′-lacZ fusion (S. typhi strain Ty277); assay: β-galactosidase activity of the sipB′-lacZ fusion in favourable LB medium; type: cell-based
Experimental: (§1) The favourable LB medium (high osmolarity and concentration of Ca^2+ions) was defined as being the standard LB medium modified so as to have a final NaCl concentration of 300 mM and a final Ca concentration of 5 mM.
(§2) Each of the strains described above was cultured at 37° C. on agar or in TCS broth. The P-galactosidase activity was determined using 4-methyl-umbelliferyl-p-D-galactopyranoside sold by the company Sigma, according to the technique of Klarsfeld et al. (Mol. Mibrobiol., 1994, 13, 585-597). The results, expressed in P-galactosidase units (fluorescence per hour and per OD600), represent the mean of the values obtained in at least three independent experiments. The standard deviations were less than 10% of the values presented.
(§3) For this, the S. typhi strains Ty267, Ty272 and Ty277, which carry the iagA′-lacZ, invF′-lacZ and sipB′-lacZ fusions, respectively, (see Table I), were cultured in the favourable LB or unfavourable LB medium.
(§4) The action of these two compounds on the expression of the iagA′-lacZ, invF′-lacZ and sipB′-lacZ fusions was studied by measuring the β-galactosidase activity expressed by these fusions as a function of the time of culturing (samples removed every two hours).

S. typhi strain Ty2 = assay: Mobility by the U-tube culturing technique; type: cell-based; conditions: U tube supplemented with 5 mM
Experimental: The mobility of each strain was studied using the U-tube culturing technique (Popoff and Le Minor, Guide pour la preparation des serum anti-Salmonella (Guide for preparing salmonella antisera], 1997). When necessary, the culture media were supplemented with chloramphenicol (Cm) at 15 μg/ml.

[3] = test system: invF′-lacZ fusion (S. typhi strain Ty272); assay: β-galactosidase activity of the invF′-lacZ fusion in favourable LB medium; type: cell-based
Experimental: as §1, §2, §3, §4

[4] = test system: iagA′-lacZcat fusion in S. typhi strain Ty267; assay: "Biotype 100" plate screen for carbon-based substrates that repress the iagA′-lacZcat fusion (β-galactosidase activity); type: cell-based; conditions: "Biotype 100" cupule, amount of substrate not known; favourable LB medium; 36 hours at 37° C.; control cupule without substrate 11 250
Experimental: as §2
A “Biotype 100”® plate sold by the company BioMerieux is composed of 100 microcupules. Each micro-cupule contains a dehydrated carbon-based substrate, with the exception of the first cupule, which is a control without substrate (the amount of dehydrated substrate per cupule is not given by the manufacturer).
In the context of the present example, these plates were used to search for carbon-based compounds which would block the expression of the invasion genes in Salmonella.
For this, the S. typhi strain Ty267, which is a derivative of the parental strain Ty2 carrying the iagA′-lacZcat transcriptional fusion (Table I), was cultured in TCS broth for 18 hours at 37° C. with shaking (200 rpm).
This culture was then diluted 100-fold in favourable LB medium (0.6 ml of culture for 60 ml of favourable LB), and then this suspension was used immediately to seed the 100 cupules of a “Biotype 100”® plate, in a proportion of 450 μl of suspension per cupule.
After incubation for 36 hours in an incubator at 37° C., the activity of the iagA′-lacZcat fusion in the Ty267 strain was determined for the culture of each cupule.
By comparing the value of the P-galactosidase activity measured in a cupule containing a carbon-based substrate with that of the control cupule without substrate, it was possible to investigate whether a substrate had no effect on, activated or repressed the expression of the iagA′-lacZcat fusion.
The S. typhi strain Ty267 (iagA′-lacZ fusion), suspended in the favourable LB medium, was used to seed the “Biotype 100”® plates.
The β-galactosidase activity expressed by the iagA′-lacZ fusion was determined for the culture in each cupule. With respect to the β-galactosidase activity measured in the control cupule without substrate (11 250 β-galactosidase units), no substrate caused an increase in the expression of the iagA′-lacZ fusion.

[5] = test system: iagA′-lacZ fusion (S. typhi strain Ty267); assay: β-galactosidase activity of the iagA′-lacZ fusion in favourable LB medium; type: cell-based
Salmonellae = assay: Bactericidal or bacteriostatic effect on the Salmonellae at neutral pH; type: cell-based, Salmonella
[6] = test system: iagA′-lacZ fusion (S. typhi strain Ty267); assay: β-galactosidase activity of the iagA′-lacZ fusion in favourable LB medium; type: cell-based; conditions: 5 mM in favourable LB medium, 6 hours at 37° C.
Experimental: as §1
Each of the strains described above was cultured at 37° C. on agar or in TCS broth. The P-galactosidase activity was determined using 4-methyl-umbelliferyl-p-D-galactopyranoside sold by the company Sigma, according to the technique of Klarsfeld et al. (Mol. Mibrobiol., 1994, 13, 585-597). The results, expressed in P-galactosidase units (fluorescence per hour and per OD600), represent the mean of the values obtained in at least three independent experiments. The standard deviations were less than 10% of the values presented. […]
The β-galactosidase activity of the iagA′-lacZ fusion was measured after incubation for 6 hours at 37° C. with shaking (200 rpm).
The S. typhi Ty267 strain (iagA′-lacZ fusion) was seeded into favourable LB medium and into favourable LB medium containing the fatty acid to be tested, in the form of its sodium salt, at the final concentration of 5 mM.

[7] = test system: tviB′-lacZ fusion (S. typhi strain Ty266); assay: β-galactosidase activity of the tviB′-lacZ fusion (specificity control); type: cell-based; conditions: 5 mM in favourable LB medium
Experimental: as §2
The tviB gene has been characterized in S. typhi, and it encodes a GDP-dehydrogenase involved in the biosynthesis of the Vi antigen, which is the capsular polysaccharide of the typhus bacillus (Waxin et al., Res. Microbiol., 1993, 144, 363-371).
The results are reported on FIG. 4, in which it is seen that samples were taken every two hours in order to measure the OD600 (corresponding to the open symbols) and in order to determine the β-galactosidase activity (corresponding to the solid symbols).

[8] = concentration greater than or equal to 2.5 mM, favourable LB medium

Structure (SMILES) | bacteriostatic or bactericidal effect on Gram-positive or Gram-negative bacteria [1] | bactericidal activity in vitro on S. typhi (S. typhi) | bactericidal activity in vitro on Shigella sonnei (Shigella sonnei) | bactericidal activity in vitro on Vibrio cholerae (Vibrio cholerae) | effect on the level of splenic colonization / protection (in words) (S. typhimurium C52; 50 mM (EDTA 10 mM) in drinking water, 5 × 10^7 bacteria orally) | Number of viable bacteria in the spleen (mean log10) (Table III) (S. typhimurium C52; 50 mM each (EDTA 10 mM) in drinking water pH 7.2-7.3 from two days before infection, 5 × 10^7 bacteria (125 LD50) orally, D+7, distilled water 7.9 ± 0.3) | decrease of the activity of the sipB′-lacZ fusion with respect to favourable LB medium without the substance ([2]; 1 mM in favourable LB medium) | expression of the sipB gene (sipB′-lacZ fusion) [2, 8] | mobility of the Ty2 strain (S. typhi strain Ty2) | decrease of the activity of the invF′-lacZ fusion with respect to favourable LB medium without the substance ([3]; 1 mM in favourable LB medium) | expression of the invF gene (invF′-lacZ fusion) [3, 8] | β-galactosidase activity expressed by the iagA′-lacZ fusion in the cupule [4] | decrease of the activity of the iagA′-lacZ fusion with respect to favourable LB medium without the substance ([5]; 1 mM in favourable LB medium) | expression of the iagA gene (iagA′-lacZ fusion) [5, 8] | bactericidal or bacteriostatic effect on the Salmonellae (Salmonellae) | β-galactosidase activity of the iagA′-lacZ fusion (Table II) ([6]; control 12134 ± 1811) | inhibition of the expression of the iagA′-lacZ fusion in S. typhi (in words) ([6]; sodium salt) | effect on the expression of the tviB′-lacZ fusion [7]
CCCCCCCCCCCC(=O)O [lauric acid] | very effective | bactericidal activity | bactericidal activity | bactericidal activity |  |  |  |  |  |  |  |  |  |  |  |  |  | 
O=C([O-])c1ccccc1.[Na+] [sodium benzoate] |  |  |  |  | no effect | 7.8 ± 0.8 log10 | 50% | very strongly represses | same mobility | 50% | very strongly represses | 245 β-galactosidase units | 50% | very strongly represses | none of these compounds has any significant bactericidal or bacteriostatic effect | 190 ± 17 β-galactosidase units | inhibit | no significant effect
